Patent US20110065675A1, “AZO DYE RELATED SMALL MOLECULE MODULATORS OF PROTEIN-PROTEIN INTERACTIONS” (University of Miami, priority 2008, published 2011)
Where two headings read alike, the source gives them in different places.

What was measured:
[1] = molecular target: T1, human CD40/CD154 (Homo sapiens, UniProt P29965); assay: Human CD40/CD154 binding inhibition assay (cell-free, plate-based); settings: for Human CD40/CD154 IC50 / IC50: cell-free binding; for Human CD40/CD154 log IC50: log of IC50, cell-free binding
T1 construct: CD154 (soluble human, FLAG-tagged, recombinant from Alexis Biochemicals; MW=18 kDa); purchased Alexis Biochemicals
T1 sequence (P29965 113-261 limits assumed): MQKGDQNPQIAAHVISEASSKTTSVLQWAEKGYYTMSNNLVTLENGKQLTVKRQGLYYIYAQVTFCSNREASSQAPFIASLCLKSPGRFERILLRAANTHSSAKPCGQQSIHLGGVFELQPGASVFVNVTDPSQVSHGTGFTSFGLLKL
Experimental: A 96-well plate-based cell-free in vitro binding inhibition assay, which is a modification of an assay described in U.S. Pat. No. 7,173,046, incorporated by reference in its entirety, has been developed and used for activity screening. Briefly, CD40 is coated at a preselected concentration, and binding of (FLAG-tagged) CD154 is measured by reacting with secondary antibody and using TMB liquid substrate system as a substrate for horseradish peroxidase for reading at 450 nm. The detailed procedure is as follows: Microtiter plates (Nunc F MaxiSorp) were coated with […] of CD40: Fc (human:Fc human, recombinant from Alexis Biochemicals; MW=54 kDa) diluted in PBS pH 7.2 at a preselected concentration of 0.3125 μg/mL. Plates were covered with plate sealer and stored overnight at 4° C. The liquid was removed from the plates and blotted dry. Plates were blocked by washing once with approx. 300 μL/well of Blocking Solution (PBS pH 7.2, 0.05% Tween-20, 1% BSA) and incubated with the same solution for 1 hour at room temperature (RT) or at 4° C. overnight. Coated plates were washed three times with Washing Solution (PBS pH 7.4, 0.05% Tween-20) and blotted dry. A preselected dilution of CD154 (soluble human, FLAG-tagged, recombinant from Alexis Biochemicals; MW=18 kDa) of 0.0087500875 μg/mL range was prepared in 100 mM HEPES, 0.005% BSA pH 7.2. Binding was carried out by adding 100 μL of this CD154 dilution/well and incubating at RT in the presence of test compounds (or blank as negative control). After incubation, the plates were washed with Washing Solution and blotted dry. Bound CD154 was detected with 200 μL/well of secondary antibody mAb ANTI-FLAG M2—Peroxidase Conjugate (anti-FLAG M2-peroxidase HRP conjugate; Sigma-Aldrich) diluted 1:40,000 in Washing Solution. After incubation, the plates were washed and blotted dry. 200 μL/well of the HR-Peroxidase substrate TMB (3,3′,5,5′-tetramethylbenzidine; Sigma-Aldrich) were added, and the plates were incubated for approximately 30 minutes in the dark. The reaction was stopped with 0.5 M H2SO4 and read at 450 nm. All conditions were tested in at least three independent experiments in duplicate or triplicate per plates. Data were normalized and fitted with standard log inhibitor vs. response models using GraphPad Prism 5 to establish median inhibitory ICso values.
A representative result using the monoclonal anti-human CD154 antibody (R&D Systems, monoclonal anti-human CD40 ligand/TNFSF5 antibody, MAB617; MW≈150 kDa used) as positive control is shown in FIG. 1.
Binding inhibition assays with this system provided consistent and well-reproducible results, as FIG. 1 (bottom), focusing on the concentration range of their activities, illustrates. […] The effect of DMSO, which was used as the diluting solvent for the non-water-soluble compounds and is a standard solvent in HTS assays, on the integrity of the assay has been examined. DMSO concentrations above 10% interfere with the binding assay, but concentrations below 3% have no effect. […] Because 5 or 10 mM stock solutions were used, all IC50 values below 250 μM can be considered as unaffected by DMSO.

[2] = molecular target: T2, mouse CD40/CD154 (mCD40:mCD154) (Mus musculus, UniProt P27548); assay: Murine CD40/CD154 binding inhibition assay
T2 construct: (FLAG-tagged) mCD154 (recombinant mouse CD40L, soluble, Alexis Biochemicals); purchased R&D Systems (mCD40/Fc); Alexis Biochemicals (mCD154)
T2 sequence (P27548 112-260 limits assumed): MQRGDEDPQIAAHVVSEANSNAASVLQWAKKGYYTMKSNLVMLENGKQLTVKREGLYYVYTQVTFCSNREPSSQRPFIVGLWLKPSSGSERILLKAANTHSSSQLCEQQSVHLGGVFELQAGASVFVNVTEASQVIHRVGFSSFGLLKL
Experimental: Compounds of interest were also tested in a murine (mouse) model similar to the human one with murine CD40 and CD154 replacing the corresponding human proteins. This serves as additional confirmation of the in vitro inhibitory potential of these compounds, and it was considered important because mouse models are likely to be used as the first in vivo tests. […] The experimental setup used was similar to the one described above, but using mCD40 (recombinant mouse CD40/TNFRSF5/Fc Chimera, soluble, R&D Systems) and (FLAG-tagged) mCD154 (recombinant mouse CD40L, soluble, Alexis Biochemicals). This time, however, a higher concentration of CD154 ligand had to be employed to obtain adequate signals, and after a number of calibration tests, mCD40 coating at 0.3125 μg/mL with mCD154 (mCD40L) at 1.1212 μg/mL range was selected to be used to screen the inhibiting activity of various compounds.
The experiments confirmed that the murine anti-CD154 monoclonal antibody (Taconic, MR1) was active in this system at the expected concentration (˜1 nM range), the human antibody was not, and vice versa, the human mAb was active in the human system, but not in the mouse system. The mouse system provided a similar range of activity with some (up to approximately five-fold) changes in activities compared to that seen in the human system (FIG. 2) (Table 1).

[3] = molecular target: human TNF-R1/TNFα (Homo sapiens, UniProt P01375+P19438); assay: Specificity test: human TNF-R1/TNFα binding inhibition assay; settings: for IC50: cell-free binding, read-out: Human TNFR1/TNFα IC50; for Human TNFR1/TNFα log IC50: log of IC50, cell-free binding
Chain of human TNF-R1/TNFα (Homo sapiens, UniProt P01375+P19438) (P01375 77-233 limits assumed): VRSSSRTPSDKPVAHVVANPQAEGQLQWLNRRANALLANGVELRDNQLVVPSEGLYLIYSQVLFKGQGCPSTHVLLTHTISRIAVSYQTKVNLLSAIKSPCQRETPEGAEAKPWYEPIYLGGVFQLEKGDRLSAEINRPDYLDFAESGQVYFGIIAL
Chain of human TNF-R1/TNFα (Homo sapiens, UniProt P01375+P19438) (P19438 30-211 limits assumed): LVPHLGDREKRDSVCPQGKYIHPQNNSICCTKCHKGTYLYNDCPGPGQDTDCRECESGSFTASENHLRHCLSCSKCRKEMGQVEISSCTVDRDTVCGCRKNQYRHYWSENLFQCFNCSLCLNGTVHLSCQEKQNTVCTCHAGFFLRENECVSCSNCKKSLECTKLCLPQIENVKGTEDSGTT
Text: (§1) A main concern for the therapeutic applicability of these compounds and of small molecule PPI inhibitors in general is related to their ability to achieve some acceptable degree of selectivity/specificity for the PPI of interest. To identify compounds that show acceptable specificity for the CD40/CD154 system, their ability to inhibit the TNF-R1/TNF-α PPI was investigated since this is particularly relevant as CD154 is part of the TNF superfamily. The experimental setup used was very similar to the one described in Example 1, but using plate-coated TNF-R1 and TNF-α as ligand (with a corresponding anti-TNF-α mAb as positive control). The concentration of TNF-R1 and TNF-α used were 0.6 μg/mL and 0.02 μg/mL, respectively.

[4] = system: human TNF-R1/TNFα; assay: as above
Text: as §1

[5] = molecular target: T3, CD40 (Homo sapiens, UniProt P25942); assay: Identification of binding partner: binding to CD40 (pre-incubation, wash-out); settings: compound incubated 1 h with CD40, washed, then CD154 added
T3 construct: purchased Alexis Biochemicals
T3 sequence (P25942 21-193 limits assumed): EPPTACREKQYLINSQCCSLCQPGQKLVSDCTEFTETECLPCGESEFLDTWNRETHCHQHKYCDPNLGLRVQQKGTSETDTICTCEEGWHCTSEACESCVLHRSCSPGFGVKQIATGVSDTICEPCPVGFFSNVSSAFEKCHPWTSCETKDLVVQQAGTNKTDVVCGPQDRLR
Text: It is also of interest to identify whether the compounds bind to the receptor CD40 or its ligand CD154 (CD40L). The main goal is to block the CD40/CD154 costimulatory interaction to achieve altered immune response and long-term tolerance; however, it seems more desirable to achieve this by targeting CD154, which is expressed mainly on activated T cells, since this way a more specific immune suppression could be achieved then by targeting CD40. To evaluate the binding partner of the test compounds, CD40 or CD154 were incubated for one hour with increasing concentrations of the test compounds, and after a wash, their ability to still bind their corresponding protein binding partner (CD154 or CD40, respectively) was assessed using a setup similar to that described before (Example 1).
To test if compounds bind specifically to CD40, the procedure of Example 1 was followed with a modification. After blocking the plates with blocking solution and washing, 100 μL of different dilutions of the compounds were added to the wells and incubated at room temperature (RT) for 1 h to allow binding with CD40 in the absence of its CD154 ligand. The plates were then washed three times with washing solution. CD154 was then added and the amount bound was assessed as before.

[6] = read-out: Human CD40/CD154 IC50
[7] = cell-free binding, read-out: Mouse CD40/CD154 IC50

Molecule	Human CD40/CD154 IC50 [1]	IC50 [1, 6]	Human CD40/CD154 log IC50 [1]	IC50 [2, 7]	Mouse CD40/CD154 log IC50 ([2]; log of IC50, cell-free binding)	IC50 [3]	Human TNFR1/TNFα log IC50 [3]	IC50 ([1]; read-out: Human CD40/CD154 IC50 (ug/mL) (converted))	IC50 ([2]; log of IC50, cell-free binding, read-out: Mouse CD40/CD154 log IC50 (converted))	Specificity [4]	Inhibitory activity for all interactions tested ([4]; all interactions tested (CD40/CD154, TNF-R1/TNF-α))	Binding to CD40 [5]
O.O=C([O-])c1ccccc1-c1c2cc(I)c(=O)c(I)c-2oc2c(I)c([O-])c(I)cc12.[Na+].[Na+] [Erythrosin B (FD&C red 3), Erythrosin B, reference compound]	2.0 µg/mL	1.9 µM	−5.72	5.9 µM	−5.23	9 µM	−5.04			nonspecific promiscuous inhibitor	~10 µM	ubiquitous binder
Cc1cc(S(=O)(=O)[O-])ccc1N=Nc1ccc(N=Nc2c(O)ccc3cccc(S(=O)(=O)[O-])c23)c(C)c1.[Na+].[Na+] [Crocein scarlet 7B, crocein scarlet 7B]	3.6 µg/mL	5.5 µM	−5.26	13.7 µM	−4.86	168 µM	−3.77					

Further lines, with some results ahead:

Human CD40/CD154 IC50 [1]	IC50 [1, 6]	Human CD40/CD154 log IC50 [1]	IC50 [2, 7]	Mouse CD40/CD154 log IC50 ([2]; log of IC50, cell-free binding)	IC50 [3]	Human TNFR1/TNFα log IC50 [3]	IC50 ([1]; read-out: Human CD40/CD154 IC50 (ug/mL) (converted))	IC50 ([2]; log of IC50, cell-free binding, read-out: Mouse CD40/CD154 log IC50 (converted))	Molecule	Specificity [4]	Inhibitory activity for all interactions tested ([4]; all interactions tested (CD40/CD154, TNF-R1/TNF-α))	Binding to CD40 [5]
5.7 µg/mL	14 µM	−4.86	16.7 µM	−4.78	2160 µM	−2.67			direct fast red B			
4.9 µg/mL	4.8 µM	−5.32	7.4 µM	−5.13	322 µM	−3.49			Nc1ccc2cc(S(=O)(=O)[O-])cc(O)c2c1N=Nc1ccc(NC(=O)Nc2ccc(N=Nc3c(N)ccc4cc(S(=O)(=O)[O-])cc(O)c34)c(S(=O)(=O)[O-])c2)cc1S(=O)(=O)[O-].[Na+].[Na+].[Na+].[Na+] [Direct red 75 (chlorazol fast pink), direct red 75]			
1.9 µg/mL	1.8 µM	−5.73	5.9 µM	−5.23	1430 µM	−2.85			O=C(Nc1ccc2c(O)c(N=Nc3ccc(N=Nc4ccc(S(=O)(=O)[O-])cc4)cc3S(=O)(=O)[O-])c(S(=O)(=O)[O-])cc2c1)Nc1ccc2c(O)c(N=Nc3ccc(N=Nc4ccc(S(=O)(=O)[O-])cc4)cc3S(=O)(=O)[O-])c(S(=O)(=O)[O-])cc2c1.[Na+].[Na+].[Na+].[Na+].[Na+].[Na+] [Direct red 80, direct red 80]			
	4.7 µM		2.3 µM		438 µM		5.2 µM	2.24 µM	O=C(Nc1ccc(C(=O)Nc2ccc(C(=O)Nc3ccc(S(=O)(=O)O)c4cc(S(=O)(=O)O)cc(S(=O)(=O)O)c34)cc2)cc1)Nc1ccc(C(=O)Nc2ccc(C(=O)Nc3ccc(S(=O)(=O)O)c4cc(S(=O)(=O)O)cc(S(=O)(=O)O)c34)cc2)cc1 [NF279]			
